Results published in paper PMC12394750, “2H-1,4-Benzoxazin-3(4H)-one linked 1,2,3-triazole derivatives and their study on inducing DNA damage in tumor cells” (Frontiers in Pharmacology, 2025).

How the values were obtained:
[1] = system: Huh-7 (hepatocellular carcinoma); assay: CCK-8 cell viability / IC50, Huh-7; assay type: cell-based, human; settings: Homo sapiens, Huh-7, 72 h; for viability at 50 µM: CCK-8; for IC50: CCK-8 dose-response
Experimental: To assess the cytotoxic potential of the newly synthesized compounds c1–c20, a panel of human tumor cell lines—including Huh-7 (hepatocellular carcinoma), MCF-7 (breast cancer), and A549 (lung cancer)—was treated with each compound at a concentration of 50 μM for 72 h. Cell viability and cytotoxicity were evaluated using the CCK-8 assay.
Cells were cultured in DMEM or RPMI 1640 medium with 10% FBS and 1% penicillin/streptomycin at 37 °C and 5% CO2. A CCK-8 assay was performed with several human cancer cell lines, including A549, Huh-7, MCF-7, HCT-116, and SKOV3, according to the instructions. Cells were plated at a density of 1,000–3,000 cells per well in a 96-well plate. After 24-h incubation, cells were treated with 40 μM compounds for 48 h or 50 μM compounds for 72 h. Cell viability was measured by adding 10 μL per well of CCK-8 reagent, which was dissolved in the cell culture medium, for 1 hour. Absorbance was taken at 450 nm using a microplate reader. The IC50 values of the compounds were further determined. Cells were seeded in a 96-well plate at a density of 1 × 10^3 cells/well. After adhering overnight, cells treated with […] concentrations (10 μM, 20 μM, 40 µM, or 80 μM) were used to draw the dose–response curve, and IC50 values were calculated by GraphPad Prism software. The CCK-8 assay was performed in triplicate, and each experiment was repeated at least three times. The results were expressed as mean ± SEM, and P < 0.05 was considered statistically significant.

[2] = system: Huh-7 cells; assay: RT-PCR gene expression; assay type: cell-based, human; settings: Huh-7, 72 h; for Caspase-7 gene expression: c5, c14 30 μM; for ATG7 gene expression / H2AX gene expression / Keap1 gene expression / TNF-α gene expression / p21 gene expression / p53 gene expression: c5, c14, c16 30 μM; for Bax gene expression / Bcl2 gene expression: c14, c16 30 μM
Experimental: To investigate the molecular mechanisms underlying the anti-tumor activity of 2H-1,4-benzoxazin-3(4H)-one linked 1,2,3-triazole derivatives, we examined the expression of key genes involved in cell growth and death, including those related to DNA damage, oxidative stress, apoptosis, and autophagy. Huh-7 cells were treated with compounds c5 (30 μM), c14 (30 μM), c16 (30 μM), and c18 (20 μM) for 72 h, followed by RT-PCR analysis.
FIGURE 5 Compounds c5, c14, c16, and c18 increased the gene expression. (A–D) Huh-7 cells were treated with different concentrations of compounds c5, c14, c16, and c18 (20 or 30 μM) for 72 h. Gene expressions were detected by RT-PCR. Data were presented as means ± SEM; *P < 0.05.
Huh-7 cells were seeded in a 12-well plate and treated with compounds for 72 h. Total RNA was extracted using TRIzol reagent (Ambion, United States), and RT-PCR was performed using PowerUp™ SYBR™ Green Master Mix (ABI, United States). Gene expression was normalized to GAPDH. Values were expressed as mean ± SEM. Statistical significance was assessed using a two-tailed Student’s t-test. P < 0.05 was considered statistically significant.

[3] = system: Huh-7 cells; assay: DNA damage staining (γ-H2AX); assay type: cell-based, human; settings: Huh-7, 10, 20 or 30 μM, 24 h
Experimental: In order to further verify the effects of 2H-1,4-benzoxazin-3(4H)-one linked 1,2,3-triazole derivatives on DNA damage, Huh-7 cells were treated with different concentrations (10 μM, 20 μM, or 30 μM) of compounds c5, c14, c16, and c18. After 24 h of treatment, cells were detected with the DNA damage assay kit and observed under a fluorescence microscope.
FIGURE 7 Compounds c5, c14, c16, and c18 affected DNA damage. (A–D) DNA damage detection shown by γ-H2AX staining in Huh-7 cells treated with compounds c5, c14, c16, and c18 (10 μM, 20 μM, or 30 μM).
Huh-7 cells with a density of 2 × 10^3 cells/well were seeded in 96-well plates. Different doses (0 μM, 5 μM, 10 μM, 20 μM, or 30 μM) of the compounds were added to cells for 24 h. A DNA Damage Detection Kit was used to dye the cells. The cell nucleus was stained blue, and DNA-damaged cells were stained green. The cells were observed and photographed by a fluorescent microscope.

[4] = system: Huh-7 cells; assay: Autophagy staining assay (MDC probe); assay type: cell-based, human; settings: Huh-7, 10, 20 or 30 μM, 24 h; especially at doses lower than 30 μM
Experimental: To further evaluate the role of 2H-1,4-benzoxazin-3(4H)-one linked 1,2,3-triazole derivatives in regulating autophagy, Huh-7 cells were treated with different doses (10 μM, 20 μM, or 30 μM) of compounds c5, c14, c16, and c18 for 24 h, and the autophagosome was detected by the MDC (monodansylcadaverine) probe. MDC could specifically label autophagosomes, which will show as green, and we can directly observe them using a fluorescence microscope.
FIGURE 8 Compounds c5, c14, c16, and c18 affected autophagy. Autophagy staining in Huh-7 cells treated with compounds c5, c14, c16, and c18 (10 μM, 20 μM, or 30 μM).
Huh-7 cells were seeded in a 96-well plate at a density of 2 × 10^3 cells/well. Cells were treated with compounds at the doses of 0 μM, 5 μM, 10 μM, 20 μM, or 30 μM. After 24 h of treatment, the medium was removed, and cells were stained with monodansylcadaverine for 1 h in the dark at 37 °C. The cells were photographed with confocal microscopy.

[5] = system: KM mice; assay: Acute toxicity test, HE staining of organs; assay type: in vivo; settings: male KM mice, 500 mg/kg via gavage, 14 consecutive days
Experimental: We assessed the safety of compound c18 using an acute toxicity test in KM mice. Male mice were divided into a control group and a c18-treated group, with the latter receiving 500 mg/kg of compound c18 via gavage for 14 consecutive days, while the control group received an equivalent volume of solvent. To evaluate the safety of compound c18, major organs—including the heart, liver, spleen, lungs, and kidneys—were collected from treated KM mice and subjected to hematoxylin and eosin (HE) staining.

O=C1COc2cc(NC(=O)c3cccc(-c4cn(Cc5ccc(Br)cc5)nn4)c3)ccc2N1 [compound c5, 3-(1-(4-bromobenzyl)-1H-1,2,3-triazol-4-yl)-N-(3-oxo-3,4-dihydro-2H-benzo[b][1,4]oxazin-7-yl)benzamide]
viability at 50 µM [1]: 15.1 ± 0.43%
IC50 [1]: 28.5 ± 0.29 µM
Atg5 gene expression ([2]; c5 30 μM): remained unchanged
Gpx4 gene expression ([2]; c5 30 μM): either downregulated or unchanged
Nrf2 gene expression ([2]; c5 30 μM): either downregulated or unchanged
Caspase-7 gene expression [2]: notably increased
ATG7 gene expression ([2]; c18 20 μM): downregulated
H2AX gene expression ([2]; c18 20 μM): no significant changes
Keap1 gene expression ([2]; c18 20 μM): significantly upregulated
TNF-α gene expression ([2]; c18 20 μM): significantly upregulated
p21 gene expression ([2]; c18 20 μM): no significant changes
p53 gene expression ([2]; c18 20 μM): no significant changes
DNA damage (γ-H2AX staining) [3]: significantly induce cell DNA damage
Autophagosomes (MDC probe) [4]: increased

O=C1COc2cc(NC(=O)c3cccc(-c4cn(Cc5cccc(F)c5)nn4)c3)ccc2N1 [compound c14, 3-(1-(3-fluorobenzyl)-1H-1,2,3-triazol-4-yl)-N-(3-oxo-3,4-dihydro-2H-benzo[b][1,4]oxazin-7-yl)benzamide]
viability at 50 µM [1]: 18.1 ± 0.76%
IC50 [1]: 32.6 ± 1.23 µM
Caspase-7 gene expression [2]: no significant changes
H2AX gene expression ([2]; c18 20 μM): significantly upregulated
Keap1 gene expression ([2]; c18 20 μM): significantly increased
p21 gene expression ([2]; c18 20 μM): unchanged or downregulated
p53 gene expression ([2]; c18 20 μM): unchanged or downregulated
autophagy-related gene expression ([2]; c14 30 μM): No differences
caspase-6 gene expression ([2]; c14 30 μM): no significant changes
Bax gene expression [2]: no significant changes
Bcl2 gene expression [2]: significantly increased
DNA damage (γ-H2AX staining) [3]: significantly induce cell DNA damage
Autophagosomes (MDC probe) [4]: increased

O=C1COc2cc(NC(=O)c3cccc(-c4cn(Cc5ccc(C(F)(F)F)cc5)nn4)c3)ccc2N1 [compound c16, N-(3-oxo-3,4-dihydro-2H-benzo[b][1,4]oxazin-7-yl)-3-(1-(4-(trifluoromethyl)benzyl)-1H-1,2,3-triazol-4-yl)benzamide]
viability at 50 µM [1]: 17.7 ± 1.27%
IC50 [1]: 31.87 ± 0.04 µM
ATG7 gene expression ([2]; c18 20 μM): downregulated
H2AX gene expression ([2]; c18 20 μM): markedly upregulated
TNF-α gene expression ([2]; c18 20 μM): markedly upregulated
p53 gene expression ([2]; c18 20 μM): markedly upregulated
Bax gene expression [2]: elevated
Bcl2 gene expression [2]: elevated
DNA damage (γ-H2AX staining) [3]: significantly induce cell DNA damage
Autophagosomes (MDC probe) [4]: increased

O=C1COc2cc(NC(=O)c3cccc(-c4cn(Cc5ccc(Cl)cc5)nn4)c3)ccc2N1 [compound c18, 3-(1-(4-chlorobenzyl)-1H-1,2,3-triazol-4-yl)-N-(3-oxo-3,4-dihydro-2H-benzo[b][1,4]oxazin-7-yl)benzamide]
viability at 50 µM [1]: 17.1 ± 0.43%
IC50 [1]: 19.05 ± 0.12 µM
ATG7 gene expression ([2]; c18 20 μM): downregulated
Keap1 gene expression ([2]; c18 20 μM): dramatically upregulated
p21 gene expression ([2]; c18 20 μM): dramatically upregulated
apoptosis-related gene expression ([2]; c18 20 μM): no changes
DNA damage (γ-H2AX staining) [3]: significantly induce cell DNA damage
Autophagosomes (MDC probe) [4]: increased
Histopathological changes of heart, liver, spleen, lungs, kidneys (HE staining) [5]: no significant histopathological changes
